# Earlier results as cited in patent US20170333404A1, “IMPROVED FORMULATIONS OF VEMURAFENIB AND METHODS OF MAKING THE SAME” (DISPERSOL TECHNOLOGIES, LLC, priority 2014, published 2017).
# Legend:
# [1] = system: BRAFV600E/K mutant advanced or malignant melanoma; conditions: Trametinib arm
# [2] = compared to the crystalline form
# V600E mutation in b-raf = conditions: patients with a V600E mutation in b-raf
# [3] = not given; remark: listed apart in the source
# melanoma = conditions: at 5 years, adjuvant treatment
compound,measurement,setting,value
CC(=O)Nc1cccc(-n2c(=O)n(C3CC3)c(=O)c3c(Nc4ccc(I)cc4F)n(C)c(=O)c(C)c32)c1 [Trametinib],Grade 3 adverse effect: hypertension,[1],12%
same,Grade 3 adverse effect: rash,[1],7%
"CCCS(=O)(=O)Nc1ccc(F)c(C(=O)c2c[nH]c3ncc(-c4ccc(Cl)cc4)cc23)c1F [amorphous form of vemurafenib, vemurafenib]",solubility in water,[2],improved solubility in water
CCCS(=O)(=O)Nc1ccc(F)c(C(=O)c2c[nH]c3ncc(-c4ccc(Cl)cc4)cc23)c1F [vemurafenib],programmed cell death,melanoma cell lines; melanoma cell lines,cause programmed cell death
same,inhibition of melanoma cells,melanoma cell lines; melanoma cells without BRAF V600E/V600K mutations,not inhibited
same,patients with reduced numbers of cancer cells,advanced melanoma; group of 16 patients with advanced melanoma,over half
same,median increased survival time over the control group,advanced melanoma; treated group vs control group,6 months
same,patients showing partial to complete regression,V600E mutation in b-raf,~80%
same,"arthralgia, patients","BRIM-2, 132 patients",58%
same,"photosensitivity, patients","BRIM-2, 132 patients",52%
same,"skin rash, patients","BRIM-2, 132 patients",52%
same,patients in whom dose modification was necessary,"BRIM-2, to manage side effects",45%
same,patients with skin lesions that may need surgical removal,[3]; at MTD of 960 mg twice a day,31%
same,maximum tolerated dose (MTD),[3]; patients,960 mg twice a day
interferon,increase in survival,melanoma,3%
